For data set [1], the system named is Human immunodeficiency virus 1. Description: Antiviral activity against HIV-1 IIIB infected in human C8166 cells assessed as inhibition of reverse transcriptase mediated cytopathic effect incubated for 3 days by MTT assay. The class given is functional, organism-based. Conditions: Human immunodeficiency virus 1, IIIB, C8166, 72 h. A general note: Damage to the host cells serves as the signal in cytopathic effect assays.

A short description of data set [2]: Cytotoxicity against human C8166 cells assessed as reduction in cell viability incubated for 3 days by MTT assay. Format: toxicity, cell-based. The note with it: time 3 day. A general note: Tetrazolium dyes change colour on reduction, which living cells bring about.
Data set [3] in a line: Therapeutic index, ratio of CC50 for cytotoxicity against human C8166 cells to EC50 for antiviral activity against HIV-1 IIIB infected in human C8166 cells. The class given is toxicity, cell-based. The note with it: read-out: Ratio CC50/EC50.

A value given as a limit tells only on which side of the number the result lay.

On to `OCCc1cc2c(c3c1ccc1ccccc13)OCO2`, for which, in data set [1], the EC50 is 0.125 µM. Also, the cytotoxic concentration (CC50) at 72 h in data set [2] was 838 µM. Besides, in data set [3], the selectivity ratio came to 6690.
On the same counts, the results for `Cc1cn([C@H]2C[C@H](N=[N+]=[N-])[C@@H](CO)O2)c(=O)[nH]c1=O` [ZIDOVUDINE] are 0.0239 µM, 3990 µM and 167000.
For the compound `c1ccc2c(c1)C[C@H]1NCCc3cc4c(c-2c31)OCO4` [ANONAINE], the half-inhibitory concentration (IC50) in data set [1] is more than 40 µM.
For the compound `CC(=O)N1CCc2cc3c(c4c2[C@H]1Cc1ccccc1-4)OCO3`, in data set [1], the half-maximal inhibitory concentration (IC50) was more than 40 µM.
For the compound `O[C@H]1Cc2cc3c(c4c2c1cc1ccccc14)OCO3`, the 50% effective concentration (EC50) in data set [1] came to 0.0209 µM. The CC50 at 72 h in data set [2] was 3090 µM. In addition, the selectivity ratio in data set [3] was found to be 148000.

In general, EC50 refers to the concentration that produces a half-maximal response. In general, CC50 refers to the concentration at which the toxic effect on the cells reaches its halfway point. As a reminder, the IC50 is the midpoint of a concentration-inhibition curve.

(Values after ChEMBL document CHEMBL5230158, “Artapilosines A and B, Unusual Phenanthrene Derivatives Related to Aporphine Alkaloids from Artabotrys pilosus” (J Nat Prod, 2021).)
